In patent US20240166658A1, “PORPHYRIN DERIVATIVES AND USES THEREOF” (University of Tasmania, priority 2021, published 2024):

Key:
[1] = UV-Vis host-guest titration, association constant; type: binding; settings: host (9) in dichloromethane; triplicate, TBA salt and acid; Bindfit
Experimental: (§1) Path length of the quartz cell was 1 cm. For UV-vis titrations, a stock solution of host was prepared (2.2×10^−3 M) in dichloromethane (DCM) and serially diluted to the required concentrations. Working solutions of tetrabutylammonium (TBA) anion salts or guest molecules were prepared in the same manner Host−guest titrations used solutions of guest prepared in the working concentration of host solution, according to the procedure of Thordarson, 2011.
UV-vis spectroscopic host−guest titrations were performed in accordance with the methodologies of Thordarson, 2011. Solutions of host in dichloromethane were prepared. Solutions of guest were then prepared in the host solution. Aliquots of guest in host solution were added to host solution and sequentially analysed until a known molar equivalent of guest was added. The amount of guest added per aliquot was ascertained by a preliminary screening experiment; strong association constants required smaller molar equivalents so more information could be collected. By way of example, host (9) responded to 0.1 molar equivalent of PFBA strongly, so an addition of 1 molar equivalent of PFBA would result in a loss of information. The inverse is true for weaker binding interactions. […]
A host solution of host (9) in dichloromethane was monitored using UV-Vis analysis as 0.5-10 equivalents of each PFAS was added. […]

[2] = UV-Vis host-guest titration, association constant; type: binding
Experimental: as §1
UV-vis spectroscopic host−guest titrations were performed in accordance with the methodologies of Thordarson, 2011. Solutions of host in dichloromethane were prepared. Solutions of guest were then prepared in the host solution. Aliquots of guest in host solution were added to host solution and sequentially analysed until a known molar equivalent of guest was added. The amount of guest added per aliquot was ascertained by a preliminary screening experiment; strong association constants required smaller molar equivalents so more information could be collected. […] The inverse is true for weaker binding interactions. Molar equivalents between 0.1-5 typically provided adequate information for modelling. The data was then used to simulate binding isotherms using www.supramolecular.org (Hibbert and Thordarson, 2016). The data was fitted to 1:1, 1:2 and 2:1 equilibria making no assumptions about the cooperativity of the binding interactions and modelled using different algorithms. These experiments mainly used the Nelder-Mead (Simplex) method.
A host solution of host (9) in dichloromethane was monitored using UV-Vis analysis as 0.5-10 equivalents of each PFAS was added. […] The data was processed using Bindfit isotherm simulators using both Nelder-Mead and L-BFGS-B methods (Thordarson, 2011).
To highlight any potential binding preferences across the PFCAs from the host molecules, triplicates of host−guest addition titrations were performed using host (9) and the TBA salts of the nine different deprotonated PFCAs.
Host (12) was also modelled for secondary binding interactions in the presence of additional guest (Table 9).

[3] = Anion selectivity screening with TBA salts, UV-Vis; type: binding; settings: dichloromethane
Experimental: The selectivity of the host (9) for anions was investigated visually and spectroscopically. The TBA salts of anions commonly found in significant concentrations in water samples were added in 10 molar equivalents to solutions of host to give preliminary indications of host−guest interactions prior to more extensive investigation. Although not an accurate proxy of real-world matrix concentrations, it was thought that the binding of any anions would indicate any affinity for other anions.

[4] = Non-fluorinated and neutral fluorinated guest molecules, UV-Vis; type: binding; settings: 10 molar equivalents, dichloromethane; immediately and 24 hours later
Experimental: The binding interaction was probed by combining the host (9) with non-fluorinated and neutral fluorinated guest molecules. Solutions of host (9) in dichloromethane were combined with 10 molar equivalents of tetrafluorobenzene and nonanoic acid. Solutions were analysed using UV-Vis spectroscopy (immediately and 24 hours later) to check for any indication of binding.

[5] = PFCA guest response across the nine PFCAs (UV-Vis, RGB, one-way ANOVA variance); settings: dichloromethane
Experimental: Experiments were performed at concentrations that could be monitored by the naked eye for practical sensing of PFAS in the field. Complexes of hosts (9), (11) and (12) were formed with the nine different perfluorocarboxylic acids (PFCAs) shown in Table 2 above and the colours of each host−PFCA complex were photographed in a lightbox and analysed using ImageJ software RGB analysis. Pixels of the solution were chosen at random to provide an RGB value. Multiple RGB values were recorded for each host−PFCA solution, and an average colour can be produced. From those values an RGB parameter was used to give a response value for modelling (Tahir et al., 2016).
After preliminary screenings, UV-Vis spectra were collected before and after the addition of 1 molar equivalent of each PFCA for each host, and the degree of complexation was noted by shifts in the Soret bands and formation of a peak at ca. 650 nm. To eliminate dilution effects, PFCA guest solutions were prepared in the equivalent concentration of host. If there was a notable host−guest interaction for a particular PFCA, the host−guest binding was investigated with more rigorous UV-Vis experiments, binding studies, and further colour analyses. Throughout these investigations, PFOA was considered the “average” PFCA both because of its position in the range of PFCA sizes and because its prevalence is often an indication of broader PFAS contamination. In any experiment where binding was further investigated for a particular PFCA, it was typically replicated with PFOA for comparison.
One-way factorial ANOVA was used to examine the dependence (or independence) of two or more factors affecting the dependent variable concurrently, in the present case the change in absorption, or the change in RGB response across the tested PFCAs, or across the different hosts. This analysis was used to determine the variance in the responses of each host across the different PFCAs. […]

| Compound | K value (averaged association constant Ka) [1] | K value (averaged association constant Ka) ([2]; host (9) in dichloromethane, triplicate, TBA salt and acid, Bindfit) | shift in the Q band ([3]; 10 molar equivalents of TBA salt) [nm] | UV-Vis change after addition of anion ([3]; 10 molar equivalents of TBA salts) | colorimetric response [4] | colorimetric response to all nine PFCAs [5] | K ([2]; 1 Host:1 Guest binding mode) | K11 ([2]; 1 Host:2 Guest binding mode) | K12 ([2]; 1 Host:2 Guest binding mode) | K11 ([2]; 2 Host:1 Guest binding mode) | K21 ([2]; 2 Host:1 Guest binding mode) |
| --- | --- | --- | --- | --- | --- | --- | --- | --- | --- | --- | --- |
| O=C(Nc1ccccc1-c1c2nc(c(-c3ccccc3NC(=O)C(F)(F)C(F)(F)C(F)(F)C(F)(F)C(F)(F)C(F)(F)C(F)(F)F)c3ccc([nH]3)c(-c3ccccc3NC(=O)C(F)(F)C(F)(F)C(F)(F)C(F)(F)C(F)(F)C(F)(F)C(F)(F)F)c3nc(c(-c4ccccc4NC(=O)C(F)(F)C(F)(F)C(F)(F)C(F)(F)C(F)(F)C(F)(F)C(F)(F)F)c4ccc1[nH]4)C=C3)C=C2)C(F)(F)C(F)(F)C(F)(F)C(F)(F)C(F)(F)C(F)(F)C(F)(F)F [host (9), α,α,α,α-5,10,15,20-tetrakis(2-(pentadecafluorooctanoylamino)phenyl)porphyrin] | 58920 | 1010 | ~32 | no significant change | no colorimetric response | colorimetric response was visible | – | – | – | – | – |
| O=C(Nc1ccccc1-c1c2nc(c(-c3ccccc3NC(=O)C(F)(F)C(F)(F)C(F)(F)C(F)(F)C(F)(F)C(F)(F)C(F)(F)C(F)(F)C(F)(F)C(F)(F)C(F)(F)F)c3ccc([nH]3)c(-c3ccccc3NC(=O)C(F)(F)C(F)(F)C(F)(F)C(F)(F)C(F)(F)C(F)(F)C(F)(F)C(F)(F)C(F)(F)C(F)(F)C(F)(F)F)c3nc(c(-c4ccccc4NC(=O)C(F)(F)C(F)(F)C(F)(F)C(F)(F)C(F)(F)C(F)(F)C(F)(F)C(F)(F)C(F)(F)C(F)(F)C(F)(F)F)c4ccc1[nH]4)C=C3)C=C2)C(F)(F)C(F)(F)C(F)(F)C(F)(F)C(F)(F)C(F)(F)C(F)(F)C(F)(F)C(F)(F)C(F)(F)C(F)(F)F [host (12), α,α,α,α-5,10,15,20-tetrakis(2-(tricosafluorododecanoylamino)phenyl) porphyrin] | – | – | – | – | – | provided a colorimetric response | 3.76 × 10^4 | 1.76 × 10^6 | 7.92 × 10^4 | 2.37 × 10^5 | 6.69 × 10^4 |
